Assay results from patent EP4782450A1, “NOVEL SKELETAL DERIVATIVE EFFECTIVE FOR HER2 MUTATION, AND PHARMACEUTICAL COMPOSITION COMPRISING SAME” (Hanmi Pharm. Co., Ltd., priority 2023, dated 2025).

What was measured:
Ba/F3 HER2 A775insYVMA = test: Growth inhibition of Ba/F3 cells engineered to overexpress HER2 A775_G776insYVMA (CellTiter-Glo luminescence); assay type: cell-based; details: Mus musculus, BaF3, 72 hours, concentrations 1000 to 0.32 nM, read-out: Ba/F3 HER2^YVMA GI50 class
Method: (§1) Experimental Example: Growth inhibition of Ba/F3 HER2 A775insYVMA and wild-type Ba/F3 cells
(§2) In this Experimental Example, the compounds obtained in Examples 1 to 92 were evaluated for their ability to inhibit growth of cells harboring either the HER2 A775insYVMA mutation or wild-type EGFR. For this purpose, Ba/F3 cells (ATCC, USA) were genetically engineered to overexpress either HER2 A775_G776insYVMA or wild-type EGFR, and the growth of these engineered Ba/F3 cells were monitored in the presence of the compounds described in the Examples to evaluate their effects on growth inhibition.
(§3) Specifically, culture flasks of the engineered Ba/F3 cells suspended in RPMI 1640 medium supplemented with 10% fetal bovine serum (FBS) and 1% penicillin/streptomycin (Gibco BRL, USA) were placed in a cell incubator and incubated at 37°C and 5% CO2 level to allow them to reach a stable logarithmic growth phase. The cells were then harvested by centrifugation to remove the old media and placed into a 96-well plate by dividing them into 100 µL aliquots per well at a dilution of 1×10^5 cells/mL in fresh media. Each of the compounds prepared in the preceding Examples were dissolved in 99.5% (cell culture grade) dimethylsulfoxide (DMSO) to prepare a stock solution of 10 mM concentration, which were serially diluted in the culture medium to final concentrations of 1000, 200, 40, 8, 1.6 and 0.32 nM for HER2 A775insYVMA Ba/F3 cells and concentrations of 10000, 5000, 1000, 200, 40 and 8 nM for wild-type EGFR overexpressing Ba/F3 cells.
(§4) To each aliquot of cells in the 96-well plate, a 50 µL test solution comprising one of the compounds was added to result in each well a 150 µL volume of cells with a compound in a final concentration ranging from 10 µM to 0.32 nM. The Ba/F3 cells treated with the test solution were incubated for 72 hours at 37°C and 5% CO2 level and underwent a 30-minute acclimation by placing the 96-well plate carrying the cells in ambient temperature. Thereafter, to each well was added 50 µL CellTiter-Glo® Luminescent Cell Assay Reagent (CTG, Promega, USA). After allowing 10 minutes to stabilize the signal, luminescence intensity was measured using a microplate reader. The half-maximal growth inhibition concentration (GI50) was calculated from the luminescence readout of the test compounds with the difference between the initial and final cell densities for the well untreated with a compound set at 100% growth. Nonlinear regression analysis based on log[inhibitor] vs. normalized response mode of the Graph Prism software was used for calculating GI50 for each compound, which are summarized in Table 6. The calculated GI50 values are classified in Table 6 into four categories: A for GI50 values less than 100 nM, B for GI50 values more than 100 nM but less than 1,000 nM, C for GI50 values more than 1,000 nM but less than 5,000 nM, and D for GI50 values of more than 5,000 nM.

[1] = tested on: wild-type EGFR overexpressing Ba/F3 cells; test: Growth inhibition of Ba/F3 cells engineered to overexpress wild-type EGFR (CellTiter-Glo luminescence); assay type: cell-based; details: Mus musculus, BaF3, 72 hours, concentrations 10000 to 8 nM, read-out: Ba/F3 EGFR^WT GI50 class
Method: as §1, §2, §3, §4

GI50 (Ba/F3 HER2 A775insYVMA) [µM]	GI50 [1] [µM]	Structure (SMILES)
< 0.1	1 to 5	C=CC(=O)N(C)CC/C=C/c1ccc2ncnc(Nc3ccc(Oc4ccc5c(c4)ncn5C)c(C)c3)c2n1 [Example 26, (E)-N-methyl-N-(4-(4-((3-methyl-4-((1-methyl-1H-benzo[d]imidazol-5-yl)oxy)phenyl)amino)pyrido[3,2-d]pyrimidin-6-yl)but-4-en-1-yl)acrylamide]
0.1 to 1	1 to 5	C=CC(=O)N1CCCC(/C=C/c2ccc3ncnc(Nc4ccc(Oc5ccc6c(c5)ncn6C)c(C)c4)c3n2)C1 (centres unmarked) [Example 27, (E)-1-(3-(2-(4-((3-methyl-4-((1-methyl-1H-benzo[d]imidazol-5-yl)oxy)phenyl)amino)pyrido[3,2-d]pyrimidin-6-yl)vinyl)piperidin-1-yl)prop-2-en-1-one]
< 0.1	1 to 5	C=CC(=O)N1CC(/C=C/c2ccc3ncnc(Nc4ccc(Oc5ccc6c(c5)ncn6C)c(C)c4)c3n2)C1 [Example 28, (E)-1-(3-(2-(4-((3-methyl-4-((1-methyl-1H-benzo[d]imidazol-5-yl)oxy)phenyl)amino)pyrido[3,2-d]pyrimidin-6-yl)vinyl)azetidin-1-yl)prop-2-en-1-one]
< 0.1	1 to 5	C=CC(=O)N1CCC(/C=C/c2ccc3ncnc(Nc4ccc(Oc5ccc6c(c5)ncn6C)c(C)c4)c3n2)C1 (centres unmarked) [Example 29, (E)-1-(3-(2-(4-((3-methyl-4-((1-methyl-1H-benzo[d]imidazol-5-yl)oxy)phenyl)amino)pyrido[3,2-d]pyrimidin-6-yl)vinyl)pyrrolidin-1-yl)prop-2-en-1-one]
0.1 to 1	0.1 to 1	C=CC(=O)N(C)C1(/C=C/c2ccc3ncnc(Nc4ccc(Oc5ccc6c(c5)ncn6C)c(C)c4)c3n2)CC1 [Example 30, (E)-N-methyl-N-(1-(2-(4-((3-methyl-4-((1-methyl-1H-benzo[d]imidazol-5-yl)oxy)phenyl)amino)pyrido[3,2-d]pyrimidin-6-yl)vinyl)cyclopropyl)acrylamide]
0.1 to 1	1 to 5	C/C=C/C(=O)N(C)C/C=C/c1ccc2ncnc(Nc3ccc(Oc4ccc5c(c4)ncn5C)c(C)c3)c2n1 [Example 31, (E)-N-methyl-N-((E)-3-(4-((3-methyl-4-((1-methyl-1H-benzo[d]imidazol-5-yl)oxy)phenyl)amino)pyrido[3,2-d]pyrimidin-6-yl)allyl)but-2-enamide]
0.1 to 1	> 5	Cc1cc(Nc2ncnc3ccc(/C=C/CN(C)C(=O)/C=C/CN(C)C)nc23)ccc1Oc1ccc2c(c1)ncn2C [Example 32, (E)-4-(dimethylamino)-N-methyl-N-((E)-3-(4-((3-methyl-4-((1-methyl-1H-benzo[d]imidazol-5-yl)oxy)phenyl)amino)pyrido[3,2-d]pyrimidin-6-yl)allyl)but-2-enamide]
< 0.1	> 5	C=CC(=O)NC/C=C/c1ccc2ncnc(Nc3ccc(Oc4cnc5c(c4)ncn5C)c(C)c3)c2n1 [Example 34, (E)-N-(3-(4-((3-methyl-4-((3-methyl-3H-imidazo[4,5-b]pyridin-6-yl)oxy)phenyl)amino)pyrido[3,2-d]pyrimidin-6-yl)allyl)acrylamide]
< 0.1	> 5	C=CC(=O)NC/C=C/c1ccc2ncnc(Nc3ccc(Oc4ccc5c(c4)ncn5C)c(C)c3F)c2n1 [Example 35, (E)-N-(3-(4-((2-fluoro-3-methyl-4-((1-methyl-1H-benzo[d]imidazol-5-yl)oxy)phenyl)amino)pyrido[3,2-d]pyrimidin-6-yl)allyl)acrylamide]

Structure (SMILES)	GI50 (Ba/F3 HER2 A775insYVMA) [µM]	GI50 [1] [µM]
C=CC(=O)NC/C=C/c1ccc2ncnc(Nc3ccc(Oc4ccc5c(c4)ncn5C)c(C)c3)c2n1 [Example 33, (E)-N-(3-(4-((3-methyl-4-((1-methyl-1H-benzo[d]imidazol-5-yl)oxy)phenyl)amino)pyrido[3,2-d]pyridin-6-yl)allyl)acrylamide]	< 0.1	1 to 5
